Test results published in patent publication US4572909A, “2-(Secondary aminoalkoxymethyl) dihydropyridine derivatives as anti-ischaemic and antihypertensive agents” (Pfizer Inc., priority 1982, dated 1986).
pIC50: −log10 of the molar value. Where a name gives a salt, the structure may show the parent alone. Read-outs that look alike come from different tables or passages of the source.

Tested on: rat aorta
Assay: reduction of calcium-induced contraction (response to calcium chloride) of spirally cut strips of rat aorta in vitro
Assay type: cell-based
Description: The ability of the compounds to inhibit the movement of calcium into the cell is shown by their effectiveness in reducing the response of isolated […] to an increase in calcium ion concentration in vitro. The test is performed by mounting spirally cut strips of rat aorta with one end fixed and the other attached to a force transducer. The tissue is immersed in a bath of physiological saline solution containing potassium ions at a concentration of 45 millimolar and no calcium. Calcium chloride is added to the bath with a pipette to give a final calcium ion concentration of 2 millimolar. The change in tension caused by the resulting contraction of the tissue is noted. The bath is drained and replaced with fresh saline solution and, after 45 minutes, the test is repeated with the particular compound under test present in the saline solution. The concentration of compound required to reduce the response by 50% is recorded.

[1] = 0.75 h; isolated rat aorta strips; 45 millimolar potassium; 2 millimolar calcium; retest after 45 minutes with compound; read-out: molar concentration of the compounds required to reduce the response by 50% (IC50)
[2] = ranking among the tested Examples
[3] = read-out: molar concentration of the compounds required to reduce the response by 50% (IC50); isolated rat aorta strips; 45 millimolar potassium; 2 millimolar calcium; retest after 45 minutes with compound
[4] = isolated rat aorta strips; 45 millimolar potassium; 2 millimolar calcium; retest after 45 minutes with compound; read-out: molar concentration of the compounds required to reduce the response by 50% (IC50)

Structure (SMILES) | pIC50 [1] | activity ranking by IC50 (the smaller the concentration the more active the compound) [2] | also measured
CCOC(=O)C1=C(COCCNC)NC(C)=C(C(=O)OC)C1c1ccccc1Cl.O=C(O)C(=O)O (stereo not drawn) [Example 1, 4-(2-chlorophenyl)-2-[2-(methylamino)ethoxymethyl]-3-ethoxycarbonyl-5-methoxycarbonyl-6-methyl-1,4-dihydropyridine, oxalate salt] | 8.49 | most active compounds | 
CCOC(=O)C1=C(COCCNC)NC(C)=C(C(=O)OC)C1c1ccccc1 (stereo not drawn) [Example 2] | 7.49 |  | 
CCOC(=O)C1=C(COCCNC)NC(C)=C(C(=O)OC)C1c1ccccc1F (stereo not drawn) [Example 3] | 7.70 |  | 
CCOC(=O)C1=C(COCCNC)NC(C)=C(C(=O)OC)C1c1ccccc1OC (stereo not drawn) [Example 4] | 7.20 |  | 
CCOC(=O)C1=C(COCCNC)NC(C)=C(C(=O)OC)C1c1cccc(Cl)c1 (stereo not drawn) [Example 5] | 7.40 |  | 
CCOC(=O)C1=C(COCCNC)NC(C)=C(C(=O)OC)C1c1cccc(O)c1Cl (stereo not drawn) [Example 6] | 6.70 |  | 
CCOC(=O)C1=C(COCCNC)NC(C)=C(C(=O)OC)C1c1c(F)cccc1Cl (stereo not drawn) [Example 7] | 7.89 |  | 
CCOC(=O)C1=C(COCCNCc2ccccc2)NC(C)=C(C(=O)OC)C1c1ccccc1Cl (stereo not drawn) [Example 8] | 7.30 |  | 
CCOC(=O)C1=C(COCCN)NC(C)=C(C(=O)OC)C1c1ccccc1Cl (stereo not drawn) [Example 9] | 8.49 | most active compounds | 
CCOC(=O)C1=C(COCCNCCOC)NC(C)=C(C(=O)OC)C1c1ccccc1Cl (stereo not drawn) [Example 10] | 7.60 |  | 
CCOC(=O)C1=C(COCCN)NC(C)=C(C(=O)OC)C1c1ccccc1Cl.O=C(O)/C=C\C(=O)O (stereo not drawn) [Example 11, 2-[(2-aminoethoxy)methyl]-4-(2-chlorophenyl)-3-ethoxycarbonyl-5-methoxycarbonyl-6-methyl-1,4-dihydropyridine maleate] |  | most active compounds | pIC50 [3]: 8.49
CCOC(=O)C1=C(COCCN)NC(C)=C(C(=O)OC)C1c1ccccc1Cl (stereo not drawn) [Example 12, 2-[2-aminoethoxy)methyl]-4-(2-chlorophenyl)-3-ethoxycarbonyl-5-methoxycarbonyl-6-methyl-1,4-dihydropyridine maleate] |  | most active compounds | pIC50 [4]: 8.49
CCOC(=O)C1=C(COCCN)NC(C)=C(C(=O)OC)C1c1cccc(Cl)c1Cl (stereo not drawn) [Example 13] | 8.20 |  | 
CCOC(=O)C1=C(COCCN)NC(C)=C(C(=O)OC)C1c1ccccc1 (stereo not drawn) [Example 14] | 6.80 |  | 
CCOC(=O)C1=C(COCCN)NC(C)=C(C(=O)OC)C1c1ccccc1F (stereo not drawn) [Example 15] | 7.74 |  | 
CCOC(=O)C1=C(COCCNCC(N)=O)NC(C)=C(C(=O)OC)C1c1ccccc1Cl (stereo not drawn) [Example 19, 2-(2-{[4-(2-Chlorophenyl)-3-ethoxycarbonyl-5-methoxycarbonyl-6-methyl-1,4-dihydropyrid-2-yl]methoxy}ethylamino)acetamide] | 8.40 |  | 
CCOC(=O)C1=C(COCCNCC(=O)NC)NC(C)=C(C(=O)OC)C1c1ccccc1Cl (stereo not drawn) [Example 20] | 7.66 |  | 
CCOC(=O)C1=C(COCCN)NC(C)=C(C(=O)OC)C1c1ccccc1Cl.O=C(O)/C=C\C(=O)O (stereo not drawn) [Example 22, 2-[(2-aminoethoxy)methyl]-4-(2-chlorophenyl)-3-ethoxycarbonyl-5-methoxycarbonyl-6-methyl-1,4-dihydropyridine maleate] |  | most active compounds | pIC50 [3]: 8.49
CCOC(=O)C1=C(COCCNC)NC(C)=C(C(=O)OC)C1c1ccccc1Cl.O=C(O)/C=C\C(=O)O (stereo not drawn) [Example 23, 4-(2-Chlorophenyl)-2-[2-(N-methylamino)ethoxymethyl]-3-ethoxycarbonyl-5-methoxycarbonyl-6-methyl-1,4-dihydropyridine maleate] |  | most active compounds | pIC50 [4]: 8.49
CCOC(=O)C1=C(COCCNC)NC(C)=C(C(=O)OC)C1c1ccccc1Cl.O=C(O)/C=C\C(=O)O (stereo not drawn) [Example 24, 4-(2-chlorophenyl)-2-[2-(N-methylamino)ethoxymethyl]-3-ethoxycarbonyl-5-methoxycarbonyl-6-methyl-1,4-dihydropyridine maleate] |  | most active compounds | pIC50 [4]: 8.49
